In the experiment the target is T1, Recombinant human BRD4 containing dual bromodomains (BRD4-BD12 (1-477)) (Homo sapiens, UniProt O60885).
T1 construct: Recombinant human BRD4 containing dual bromodomains (BRD4-BD12 (1-477)); made in house; host or cells: E. coli BL21-CodonPlus (DE3), modified pET vector
Briefly: BRD4 Alphascreen binding assay. The method, then:
BRD4 Alphascreen Binding Assay
Binding of compounds of Formula (I) with BRD4 was assessed using Alphascreen binding assay. The inhibition of the interaction between BRD4 and its acetylated target protein was measured quantitatively using recombinant BRD4 protein, an acetylated Histone 4 peptide, and AlphaScreen™ technology. In absence of inhibition of the BRD4 protein bound to AlphaScreen™ nickel chelate acceptor beads can interact with the acetylated Histone 4 peptide which was immobilized by the AlphaScreen™ Streptavidin coated beads. This interaction brings donor and acceptor beads in proximity. The close proximity allows the singlet oxygen produced by laser excitation of the donor beads to reach the acceptor beads and generate a luminescence signal. BRD4 inhibitors result in a decrease in the proximity signal through an inhibition of the BRD4—acetylated peptide interaction.
Recombinant human BRD4 containing dual bromodomains (BRD4-BD12 (1-477)) was prepared and purified as described in protein expression and purification session. The peptide was human Histone H41-21K5AcK8AcK12AcK16Ac-Biotin (Anaspec CA, USA).
Protocol for BRD4 assay: All components are prepared in buffer composed of 50 mM HEPES pH 7.5, 50 mM NaCl, 0.01% BSA, 0.01% Triton X-100, 2 mM DTT. Test compounds and DMSO vehicle are diluted 1:50 in buffer and a 4 μL volume was transferred to an Alphaplate. 5.5 μL of Bromodomain protein and 5.5 μL of peptide are added to wells containing 4 μL of various concentrations of test compounds of Formula (I) or DMSO vehicle in an Alphaplate (PerkinElmer GA, USA) and incubated for 1 hour at room temperature. 5 μL donor and acceptor bead mixture was then added with final concentrations of 7.5 μg/ml. 30 minutes after bead addition, Alpha signal was read on the Envision spectrometer (λEx 680 nm, λEm 520-620 nm). Final concentrations of bromodomain proteins and peptide are as shown below.
All data were normalized to the mean of 16 high and 16 low control wells on each plate. A four parameter curve fit of the following formula was then applied: Y=A+((B−A)/(1+((C/x)^D))) Where ‘A’ is the minimum, ‘B’ is the maximum, ‘C’ is the IC50 and ‘D’ is the Hill slope. Protein Expression and Purification
Recombinant human BRD4 containing dual bromodomains (BRD4-BD12 (1-477)) was expressed in E. coli cells (in a modified pET vector) with an N-terminal six-His tag and purified using a combination of both IMAC (Ni-affinity) and size exclusion chromatography steps.
Recombinant BRD4 was expressed using the E. coli strain BL21-CodonPlus (DE3) (Agilent Technologies CA, USA). Cells were grown in Terrific Broth (TB) media to an OD600 of 2.0 at 37° C. at which temperature was reduced to 18° C., protein was induced with 0.1 mM isopropyl-β-D-thiogalactopyranoside (“IPTG”) for 12-18 hours and harvested by centrifugation at 8000×g for 20 minutes. Cells were re-suspended in 40 mM Tris-HCl pH 8.0, 0.5 M NaCl, 25 mM Imidazole, 5% glycerol, 1/200 vol. Protease Inhibitor Cocktail Set III (Calbiochem), 5 mM beta-mercaptoethanol (“BME”), 0.5 mg/mL Lysozyme, and 0.5 mg/mL DNaseI, incubated on ice for 30 minutes and lysed with a cell disruptor (MicroFluidics MA, USA). The lysate was clarified by centrifugation at 20,000×g for 2 hours. The protein was captured with Ni-NTA resin (Life Technologies, USA). Contaminating proteins were washed off with 40 mM Tris-HCl pH 8.0, 0.5 M NaCl, 25 mM Imidazole, 5% glycerol, and 5 mM BME. Following 3× wash steps, protein was eluted step wise into wash buffer containing 50, 100, 150, 500 mM Imidazole. The protein was further purified using Gel Filtration column 16/60 Superdex 200 (GE Biosciences NJ, USA) in 10 mM HEPES pH 8.0, 150 mM NaCl, and 5 mM DTT. Glycerol was added to a final concentration of 12% and the protein was aliquoted and flash-frozen in liquid Nitrogen.
(Bead proximity is the source of the signal in Alpha formats.)

One may read the IC50 as the concentration that inhibits the measured activity by half. As for `Cc1noc(C)c1-c1cnc2c(c1)c(-c1ccc(C(=O)O)cc1OC1COC1)cn2[C@@H](C)c1ccccn1` [P-0137, (S)-4-(5-(3,5-dimethylisoxazol-4-yl)-1-(1-(pyridin-2-yl)ethyl)-1H-pyrrolo[2,3-b]pyridin-3-yl)-3-(oxetan-3-yloxy)benzoic acid], the IC50 was 8 to 1000 µM.
For `Cc1noc(C)c1-c1cnc2c(c1)c(-c1ccc(C(=O)O)cc1OCC1CC1)cn2[C@@H](C)c1ccccn1` [P-0138, (S)-3-(cyclopropylmethoxy)-4-(5-(3,5-dimethylisoxazol-4-yl)-1-(1-(pyridin-2-yl)ethyl)-1H-pyrrolo[2,3-b]pyridin-3-yl)benzoic acid] the value was 8 to 1000 µM; for `Cc1noc(C)c1-c1cnc2c(c1)c(-c1ccc(C(=O)O)cc1OCc1ccccc1)cn2[C@@H](C)c1ccccn1` [P-0139, (S)-3-(benzyloxy)-4-(5-(3,5-dimethylisoxazol-4-yl)-1-(1-(pyridin-2-yl)ethyl)-1H-pyrrolo[2,3-b]pyridin-3-yl)benzoic acid], 8 to 1000 µM.
To `COc1ccc(C(=O)O)cc1-c1cn(C(C)c2ccccc2)c2cc(-c3c(C)noc3C)cnc12` (stereo not shown) [P-0140, 3-(6-(3,5-dimethylisoxazol-4-yl)-1-(1-phenylethyl)-1H-pyrrolo[3,2-b]pyridin-3-yl)-4-methoxybenzoic acid] belongs 8 to 1000 µM; to `Cc1noc(C)c1-c1cnc2c(-c3cc(C(=O)O)ccc3Cl)cn(C(C)c3ccccc3)c2c1` (stereo not shown) [P-0141, 4-chloro-3-(6-(3,5-dimethylisoxazol-4-yl)-1-(1-phenylethyl)-1H-pyrrolo[3,2-b]pyridin-3-yl)benzoic acid], 8 to 1000 µM; to `COc1cc(C(=O)O)ccc1-c1cn([C@@H](C)c2ccccn2)c2cc(-c3c(C)noc3C)cnc12` [P-0142, (S)-4-(6-(3,5-dimethylisoxazol-4-yl)-1-(1-(pyridin-2-yl)ethyl)-1H-pyrrolo[3,2-b]pyridin-3-yl)-3-methoxybenzoic acid], 0.0001 to 1 µM.
For `Cc1noc(C)c1-c1cnc2c(CC3CCC3)cn(-c3ccc(O)nc3)c2c1` [P-0143, 5-(3-(cyclobutylmethyl)-6-(3,5-dimethylisoxazol-4-yl)-1H-pyrrolo[3,2-b]pyridin-1-yl)pyridin-2-ol], the IC50 lay within 8 to 1000 µM.
For `COc1cc(C(=O)O)cc(O)c1-c1cn([C@@H](C)c2ccccn2)c2ncc(-c3c(C)noc3C)cc12` [P-0144, (S)-4-(5-(3,5-dimethylisoxazol-4-yl)-1-(1-(pyridin-2-yl)ethyl)-1H-pyrrolo[2,3-b]pyridin-3-yl)-3-hydroxy-5-methoxybenzoic acid] the value was 8 to 1000 µM; for `Cc1noc(C)c1-c1cnc2c(c1)c(-c1ccnc(O)c1)cn2[C@@H](C)c1ccccn1` [P-0145, (S)-4-(5-(3,5-dimethylisoxazol-4-yl)-1-(1-(pyridin-2-yl)ethyl)-1H-pyrrolo[2,3-b]pyridin-3-yl)pyridin-2-ol], 8 to 1000 µM.
Regarding `COc1cc(C(=O)O)cc(OC)c1-c1cn([C@@H](C)c2ccccn2)c2cc(-c3c(C)noc3C)cnc12` [P-0146, (S)-4-(6-(3,5-dimethylisoxazol-4-yl)-1-(1-(pyridin-2-yl)ethyl)-1H-pyrrolo[3,2-b]pyridin-3-yl)-3,5-dimethoxybenzoic acid], the IC50 fell in the range of 8 to 1000 µM.
To `CCOc1cc(C(=O)O)cc(OCC)c1-c1cn([C@@H](C)c2ccccn2)c2ncc(-c3c(C)noc3C)cc12` [P-0147, (S)-4-(5-(3,5-dimethylisoxazol-4-yl)-1-(1-(pyridin-2-yl)ethyl)-1H-pyrrolo[2,3-b]pyridin-3-yl)-3,5-diethoxybenzoic acid] belongs 8 to 1000 µM; to `CC[C@@H](c1ccccn1)n1cc(-c2cc(C(=O)O)ccc2Cl)c2ncc(-c3c(C)noc3C)cc21` [P-0148, (S)-4-chloro-3-(6-(3,5-dimethylisoxazol-4-yl)-1-(1-(pyridin-2-yl)propyl)-1H-pyrrolo[3,2-b]pyridin-3-yl)benzoic acid], 1 to 8 µM; to `Cc1noc(C)c1-c1cc2c(cn1)c(CC1CCC1)cn2-c1c(Cl)cc(C(=O)O)cc1Cl` [P-0149, 3,5-dichloro-4-(3-(cyclobutylmethyl)-6-(3,5-dimethylisoxazol-4-yl)-1H-pyrrolo[3,2-c]pyridin-1-yl)benzoic acid], 8 to 1000 µM.
To `Cc1noc(C)c1-c1cnc2c(-c3ccccc3)cn(-c3c(Cl)cc(C(=O)O)cc3Cl)c2c1` [P-0150, 3,5-dichloro-4-(6-(3,5-dimethylisoxazol-4-yl)-3-phenyl-1H-pyrrolo[3,2-b]pyridin-1-yl)benzoic acid] belongs 1 to 8 µM.
For `Cc1noc(C)c1-c1cnc2c(C3=CCOCC3)cn(-c3c(Cl)cc(C(=O)O)cc3Cl)c2c1` [P-0151, 3,5-dichloro-4-(3-(3,6-dihydro-2H-pyran-4-yl)-6-(3,5-dimethylisoxazol-4-yl)-1H-pyrrolo[3,2-b]pyridin-1-yl)benzoic acid] the value was 1 to 8 µM; for `COc1cc(C(=O)O)cc(OCC2CC2)c1-c1cn([C@@H](C)c2ccccn2)c2ncc(-c3c(C)noc3C)cc12` [P-0152, (S)-3-(cyclopropylmethoxy)-4-(5-(3,5-dimethylisoxazol-4-yl)-1-(1-(pyridin-2-yl)ethyl)-1H-pyrrolo[2,3-b]pyridin-3-yl)-5-methoxybenzoic acid], 8 to 1000 µM.
`COc1cc(C(=O)O)cc(OCC(F)(F)F)c1-c1cn([C@@H](C)c2ccccn2)c2ncc(-c3c(C)noc3C)cc12` [P-0153, (S)-4-(5-(3,5-dimethylisoxazol-4-yl)-1-(1-(pyridin-2-yl)ethyl)-1H-pyrrolo[2,3-b]pyridin-3-yl)-3-methoxy-5-(2,2,2-trifluoroethoxy)benzoic acid]: the IC50 lay within 8 to 1000 µM.
For `Cc1noc(C)c1-c1cnc2c(-c3ccc(C(=O)O)cc3)c(C(F)(F)F)n([C@@H](C)c3ccccn3)c2c1` [P-0154, (S)-4-(6-(3,5-dimethylisoxazol-4-yl)-1-(1-(pyridin-2-yl)ethyl)-2-(trifluoromethyl)-1H-pyrrolo[3,2-b]pyridin-3-yl)benzoic acid] the value was 0.0001 to 1 µM; for `Cc1noc(C)c1-c1cnc2c(-c3ccccc3Cl)cn(C(C)(c3ccccn3)c3ccccn3)c2c1` [P-0155, 4-(3-(2-chloropheny1)-1-(1,1-di(pyridin-2-yl)ethyl)-1H-pyrrolo[3,2-b]pyridin-6-yl)-3,5-dimethylisoxazole], 0.0001 to 1 µM; for `Cc1noc(C)c1-c1cnc2c(c1)c(-c1ccc(C(=O)O)cc1OC(F)(F)F)cn2C(C1CC1)C1CC1` [P-0156, 4-(1-(dicyclopropylmethyl)-5-(3,5-dimethylisoxazol-4-yl)-1H-pyrrolo[2,3-b]pyridin-3-yl)-3-(trifluoromethoxy)benzoic acid], 8 to 1000 µM.
To `Cc1noc(C)c1-c1cnc2c(c1)c(-c1ccc(C(=O)O)cc1OC(F)(F)F)cn2CC1CC(F)(F)C1` [P-0157, 4-(1-((3,3-difluorocyclobutyl)methyl)-5-(3,5-dimethylisoxazol-4-yl)-1H-pyrrolo[2,3-b]pyridin-3-yl)-3-(trifluoromethoxy)benzoic acid] belongs 0.0001 to 1 µM.
To `Cc1noc(C)c1-c1cnc2c(c1)c(-c1ccc(C(=O)O)cc1OC(F)(F)F)cn2-c1ccccn1` [P-0158, 4-(5-(3,5-dimethylisoxazol-4-yl)-1-(pyridin-2-yl)-1H-pyrrolo[2,3-b]pyridin-3-yl)-3-(trifluoromethoxy)benzoic acid] belongs 0.0001 to 1 µM.

(Values after patent US11446287B2, “Compounds and methods for EP300 or CBP modulation and indications therefor” (Opna Immuno-Oncology SA, priority 2019, dated 2022).)
